Measured values: PubChem BioAssay AID1963433 (Molecular Pharmacology Branch, DTP, NCI, 2024)

Test system: 772245-204-R-J1-PDC complex spheroid growth
Assay: Anticancer human tumor 772245-204-R-J1-PDC patient-derived rhabdomyosarcoma cell line growth inhibition [Asc]
Details: for IC50: curve of first compound; for viability, T/C: stronger effect = lower value
Procedure, shortened: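 Tumor cells were grown as complex spheroids with human endothelial cells (HUVEC) and human mesenchymal stem cells as stroma. Agents were tested alone and in combination, in half-log steps down from the clinical Cmax, or from 10 microM where Cmax was unknown.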

[1] = second compound 0.03 µM, first compound 0.0316 µM
[2] = second compound 0.03 µM, first compound 0.1 µM
[3] = second compound 0.03 µM, first compound 0.316 µM
[4] = second compound 0.03 µM, first compound 1 µM
[5] = second compound 0.03 µM, first compound 3.16 µM
[6] = second compound 0.03 µM, first compound 10 µM
[7] = second compound 0.0949 µM, first compound 0.0316 µM
[8] = second compound 0.0949 µM, first compound 0.1 µM
[9] = second compound 0.0949 µM, first compound 0.316 µM
[10] = second compound 0.0949 µM, first compound 1 µM
[11] = second compound 0.0949 µM, first compound 3.16 µM
[12] = second compound 0.0949 µM, first compound 10 µM
[13] = second compound 0.3 µM, first compound 0.0316 µM
[14] = second compound 0.3 µM, first compound 0.1 µM
[15] = second compound 0.3 µM, first compound 0.316 µM
[16] = second compound 0.3 µM, first compound 1 µM
[17] = second compound 0.3 µM, first compound 3.16 µM
[18] = second compound 0.3 µM, first compound 10 µM
[19] = second compound 0.949 µM, first compound 0.0316 µM
[20] = second compound 0.949 µM, first compound 0.1 µM
[21] = second compound 0.949 µM, first compound 0.316 µM
[22] = second compound 0.949 µM, first compound 1 µM
[23] = second compound 0.949 µM, first compound 3.16 µM
[24] = second compound 0.949 µM, first compound 10 µM
[25] = second compound 3 µM, first compound 0.0316 µM
[26] = second compound 3 µM, first compound 0.1 µM
[27] = second compound 3 µM, first compound 0.316 µM
[28] = second compound 3 µM, first compound 1 µM
[29] = second compound 3 µM, first compound 3.16 µM
[30] = second compound 3 µM, first compound 10 µM
[31] = second compound 0.03 µM, first compound 0.00316 µM
[32] = second compound 0.03 µM, first compound 0.01 µM
[33] = second compound 0.0949 µM, first compound 0.00316 µM
[34] = second compound 0.0949 µM, first compound 0.01 µM
[35] = second compound 0.3 µM, first compound 0.00316 µM
[36] = second compound 0.3 µM, first compound 0.01 µM
[37] = second compound 0.949 µM, first compound 0.00316 µM
[38] = second compound 0.949 µM, first compound 0.01 µM
[39] = second compound 3 µM, first compound 0.00316 µM
[40] = second compound 3 µM, first compound 0.01 µM
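Further: compound exposure lasted seven days.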
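Wherever viability, T/C is given: 100% = DMSO vehicle control viability.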

Row | IC50 (second compound 0.03 µM) | IC50 (second compound 0.0949 µM) | IC50 (second compound 0.3 µM) | IC50 (second compound 0.949 µM) | IC50 (second compound 3 µM) | SMILES | viability, T/C [1] | viability, T/C [2] | viability, T/C [3] | viability, T/C [4] | viability, T/C [7] | viability, T/C [8] | viability, T/C [9] | viability, T/C [10] | viability, T/C [13] | viability, T/C [14] | viability, T/C [15] | viability, T/C [16] | viability, T/C [19] | viability, T/C [20] | viability, T/C [21] | other results
1 | > 10000 nM | > 10000 nM | > 10000 nM | > 10000 nM | > 10000 nM | C#Cc1c(F)ccc2cc(O)cc(-c3ncc4c(N5CC6CCC(C5)N6)nc(OCC56CCCN5CC(F)C6)nc4c3F)c12 (stereo not given) + CCN1C(C(=O)NC23CCC(C(=O)O)(CC2)CC3)C(c2cccc(Cl)c2F)C2(C(=O)Nc3cc(Cl)ccc32)C12CCCCC2 | 98.8% | 106% | 94.8% | 95.8% | 98.4% | 91.9% | 93% | 86% | 108% | 99.2% | 106% | 111% | 90% | 90.9% | 86% | viability, T/C [5]: 118%; viability, T/C [6]: 89.5%; viability, T/C [11]: 93.5%; viability, T/C [12]: 78.4%; viability, T/C [17]: 81.2%; viability, T/C [18]: 80.6%; viability, T/C [22]: 86.9%; viability, T/C [23]: 91.6%; viability, T/C [24]: 76.5%; viability, T/C [25]: 73.1%; viability, T/C [26]: 79.2%; viability, T/C [27]: 77.1%; viability, T/C [28]: 67.8%; viability, T/C [29]: 67.3%; viability, T/C [30]: 54.2%
2 | > 1000 nM | > 1000 nM | > 1000 nM | > 1000 nM | 577 nM | CNC(C)C(=O)NC1CN(S(=O)(=O)c2cccc(S(=O)(=O)N3CCC4CCC(C(=O)NC(c5ccccc5)c5ccccc5)N4C(=O)C(NC(=O)C(C)NC)C3)c2)CCC2CCC(C(=O)NC(c3ccccc3)c3ccccc3)N2C1=O (stereo not given) + CCN1C(C(=O)NC23CCC(C(=O)O)(CC2)CC3)C(c2cccc(Cl)c2F)C2(C(=O)Nc3cc(Cl)ccc32)C12CCCCC2 | 88% | 91.8% | 94.9% | 86.8% | 75.3% | 89.7% | 79.2% | 85.3% | 84.6% | 68.9% | 70.8% | 88.1% | 78.8% | 75.2% | 73% | viability, T/C [31]: 86.2%; viability, T/C [32]: 102%; viability, T/C [33]: 94.5%; viability, T/C [34]: 98.9%; viability, T/C [35]: 74.8%; viability, T/C [36]: 83%; viability, T/C [37]: 88.2%; viability, T/C [38]: 87.4%; viability, T/C [22]: 62.4%; viability, T/C [39]: 72.8%; viability, T/C [40]: 62.2%; viability, T/C [25]: 60.2%; viability, T/C [26]: 56.7%; viability, T/C [27]: 43.2%; viability, T/C [28]: 53.2%

More lines, now with the values behind:

Row | SMILES | IC50 (second compound 0.03 µM) | IC50 (second compound 0.0949 µM) | IC50 (second compound 0.3 µM) | IC50 (second compound 0.949 µM) | IC50 (second compound 3 µM) | viability, T/C [1] | viability, T/C [2] | viability, T/C [3] | viability, T/C [4] | viability, T/C [7] | viability, T/C [8] | viability, T/C [9] | viability, T/C [10] | viability, T/C [13] | viability, T/C [14] | viability, T/C [15] | viability, T/C [16] | viability, T/C [19] | viability, T/C [20] | viability, T/C [21] | other results
3 | C=C(F)C(=O)N1CCN(c2nc(OCC3CCCN3C)nc3c2CCN(c2cccc4cccc(Cl)c24)C3)CC1CC#N (stereo not given) + CCN1C(C(=O)NC23CCC(C(=O)O)(CC2)CC3)C(c2cccc(Cl)c2F)C2(C(=O)Nc3cc(Cl)ccc32)C12CCCCC2 | 3920 nM | 3940 nM | 4430 nM | 3290 nM | 2110 nM | 94.9% | 101% | 83.1% | 97.2% | 93.7% | 94.5% | 85.3% | 89.6% | 95.8% | 96.7% | 85.6% | 87% | 92.3% | 83.7% | 91.6% | viability, T/C [5]: 61.6%; viability, T/C [6]: 0.2%; viability, T/C [11]: 61.7%; viability, T/C [12]: 0.17%; viability, T/C [17]: 71.8%; viability, T/C [18]: 0.18%; viability, T/C [22]: 96.7%; viability, T/C [23]: 51.9%; viability, T/C [24]: 0.16%; viability, T/C [25]: 72.7%; viability, T/C [26]: 79.8%; viability, T/C [27]: 72.5%; viability, T/C [28]: 73%; viability, T/C [29]: 37.5%; viability, T/C [30]: 0.38%
4 | C=CC(=O)N1CCN(c2nc(=O)n(-c3c(C)ccnc3C(C)C)c3nc(-c4c(O)cccc4F)c(F)cc23)C(C)C1 (stereo not given) + CCN1C(C(=O)NC23CCC(C(=O)O)(CC2)CC3)C(c2cccc(Cl)c2F)C2(C(=O)Nc3cc(Cl)ccc32)C12CCCCC2 | > 10000 nM | > 10000 nM | > 10000 nM | > 10000 nM | > 10000 nM | 105% | 102% | 94.9% | 113% | 112% | 104% | 103% | 102% | 104% | 111% | 113% | 113% | 111% | 94.8% | 99.5% | viability, T/C [5]: 110%; viability, T/C [6]: 86.4%; viability, T/C [11]: 106%; viability, T/C [12]: 103%; viability, T/C [17]: 113%; viability, T/C [18]: 93.8%; viability, T/C [22]: 105%; viability, T/C [23]: 104%; viability, T/C [24]: 79.3%; viability, T/C [25]: 81.9%; viability, T/C [26]: 85.7%; viability, T/C [27]: 74%; viability, T/C [28]: 77%; viability, T/C [29]: 75.2%; viability, T/C [30]: 60.8%
5 | COc1c(OCCCN2CCOCC2)ccc2c3n(c(=NC(=O)c4cnc(N)nc4)nc12)CCN3 + CCN1C(C(=O)NC23CCC(C(=O)O)(CC2)CC3)C(c2cccc(Cl)c2F)C2(C(=O)Nc3cc(Cl)ccc32)C12CCCCC2 | 188 nM | 146 nM | 90.5 nM | 139 nM | 51.4 nM | 83.7% | 61.6% | 41.8% | 32.3% | 80% | 57.5% | 35.6% | 24.8% | 84.7% | 46.6% | 39.1% | 30% | 77.2% | 55.2% | 37.3% | viability, T/C [31]: 99.5%; viability, T/C [32]: 105%; viability, T/C [33]: 105%; viability, T/C [34]: 97.6%; viability, T/C [35]: 103%; viability, T/C [36]: 109%; viability, T/C [37]: 105%; viability, T/C [38]: 99%; viability, T/C [22]: 23%; viability, T/C [39]: 69.3%; viability, T/C [40]: 78.5%; viability, T/C [25]: 57.4%; viability, T/C [26]: 38.1%; viability, T/C [27]: 29.5%; viability, T/C [28]: 26.6%
